Assay results from ChEMBL document CHEMBL4251628, “Novel click modifiable thioquinazolinones as anti-inflammatory agents: Design, synthesis, biological evaluation and docking study” (Eur J Med Chem, 2018).

Legend:
[1] = biological target: T1, Prostaglandin G/H synthase 1 (Ovis aries, UniProt P05979); experiment: Inhibition of ovine COX1 assessed as reduction in PGF2alpha production using arachidonic acid as substrate by colorimetric method
T1 sequence (P05979 whole entry): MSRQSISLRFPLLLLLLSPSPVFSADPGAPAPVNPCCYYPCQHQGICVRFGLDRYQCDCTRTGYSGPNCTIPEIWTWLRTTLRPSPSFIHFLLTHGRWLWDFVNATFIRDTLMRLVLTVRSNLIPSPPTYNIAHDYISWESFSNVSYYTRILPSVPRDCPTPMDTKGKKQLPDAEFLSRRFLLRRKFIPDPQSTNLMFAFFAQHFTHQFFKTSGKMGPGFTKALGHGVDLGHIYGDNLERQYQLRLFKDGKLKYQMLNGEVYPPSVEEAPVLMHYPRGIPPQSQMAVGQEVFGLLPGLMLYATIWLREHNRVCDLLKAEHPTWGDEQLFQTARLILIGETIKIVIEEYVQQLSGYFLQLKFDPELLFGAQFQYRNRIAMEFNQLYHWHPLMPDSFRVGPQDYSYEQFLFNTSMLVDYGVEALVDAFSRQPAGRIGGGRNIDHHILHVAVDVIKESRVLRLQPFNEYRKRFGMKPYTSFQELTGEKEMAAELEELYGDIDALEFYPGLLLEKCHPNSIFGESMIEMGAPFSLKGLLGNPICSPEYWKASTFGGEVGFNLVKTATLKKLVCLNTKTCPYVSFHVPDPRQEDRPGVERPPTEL

Rattus norvegicus [2] = experiment: Anti-inflammatory activity in rat acute inflammation model assessed as inhibition of formalin-induced paw edema at 5 mg/kg, po measured after 4 hrs relative to control; assay type: functional
Rattus norvegicus [3] = experiment: Anti-inflammatory activity in rat acute inflammation model assessed as inhibition of formalin-induced paw edema at 5 mg/kg, po measured after 4 hrs relative to celecoxib; assay type: functional
Rattus norvegicus [4] = experiment: Anti-inflammatory activity in rat acute inflammation model assessed as inhibition of formalin-induced paw edema at 5 mg/kg, po measured after 4 hrs relative to negative control
[5] = Inhibition of soybean 15-LOX using linoleic acid as substrate by colorimetric method; design: species or system Glycine max
THP-1 [6] = experiment: Inhibition of PMA-induced human THP1 monocytes differentiation in to macrophages preincubated for 6 hrs followed by PMA stimulation by phase contrast microscopic method; assay type: functional, cell-based
Rattus norvegicus [7] = experiment: Ulcerogenicity in Wistar rat assessed as hyperemia in gastric mucosa at 60 mg/kg, po after 6 hrs; assay type: toxicity, organism-based; conditions: in vivo
THP-1 [8] = experiment: Cytotoxicity against human THP1 cells assessed as reduction in cell viability after 30 hrs by MTS assay; assay type: cell-based; conditions: thp-1, 30 h
Rattus norvegicus [9] = experiment: Ulcerogenicity in Wistar rat assessed as lymphocytic infilteration in gastric mucosa po after 6 hrs by H and E staining based light microscopic method; conditions: in vivo
Rattus norvegicus [10] = experiment: Ulcerogenicity in Wistar rat assessed as congested blood vessels in gastric mucosa esophagus at 60 mg/kg, po after 6 hrs by H and E staining based light microscopic method; assay type: toxicity, organism-based; conditions: in vivo
Rattus norvegicus [11] = experiment: Ulcerogenicity in Wistar rat assessed as maceration of gastric mucosa at 60 mg/kg, po after 6 hrs by H and E staining based light microscopic method; assay type: toxicity, organism-based; conditions: in vivo
Rattus norvegicus [12] = experiment: Ulcerogenicity in Wistar rat assessed as necrosis of gastric mucosa at 60 mg/kg, po after 6 hrs by H and E staining based light microscopic method; assay type: toxicity, organism-based; conditions: in vivo
Rattus norvegicus [13] = experiment: Ulcerogenicity in Wistar rat assessed as effect on gastro-esophageal junction at 60 mg/kg, po after 6 hrs by H and E staining based light microscopic method; assay type: toxicity, organism-based; conditions: in vivo
[14] = biological target: T2, Serine/threonine-protein kinase Chk1 (Homo sapiens, UniProt O14757); experiment: Inhibition of CHK1 (unknown origin)
T2 sequence (O14757 whole entry): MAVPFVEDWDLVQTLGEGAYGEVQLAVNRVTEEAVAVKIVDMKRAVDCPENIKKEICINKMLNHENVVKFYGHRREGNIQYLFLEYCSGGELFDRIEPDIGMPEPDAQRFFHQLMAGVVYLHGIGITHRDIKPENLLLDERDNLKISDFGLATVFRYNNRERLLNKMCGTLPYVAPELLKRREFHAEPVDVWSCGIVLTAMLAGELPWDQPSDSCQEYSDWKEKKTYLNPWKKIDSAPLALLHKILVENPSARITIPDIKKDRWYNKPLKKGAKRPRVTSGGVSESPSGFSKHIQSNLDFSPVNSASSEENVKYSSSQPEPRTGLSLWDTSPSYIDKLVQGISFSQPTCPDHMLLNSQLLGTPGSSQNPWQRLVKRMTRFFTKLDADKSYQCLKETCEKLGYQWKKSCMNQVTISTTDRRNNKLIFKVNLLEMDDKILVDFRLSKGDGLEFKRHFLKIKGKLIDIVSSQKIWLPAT

COc1ccc(-n2c(SCc3cn(-c4ccc(Br)cc4)nn3)nc3ccccc3c2=O)cc1
IC50 [1]: 7.63 µM

COc1ccc(-n2c(SCc3cc(-c4ccc(OC)c(OC)c4)no3)nc3ccccc3c2=O)cc1
IC50 [1]: 6.53 µM

O=C(O)c1ccc(-n2cc(CSc3nc4ccccc4c(=O)n3-c3ccccc3)nn2)cc1
IC50 [1]: 5.89 µM

O=c1c2ccccc2nc(SCc2cn(-c3ccc(Br)cc3)nn2)n1-c1ccccc1
IC50 [1]: 5.89 µM

O=c1c2ccccc2nc(SCc2cc(-c3ccc(Cl)cc3)no2)n1-c1ccc(Cl)cc1
IC50 [1]: 5.61 µM

COc1ccc(-c2cc(CSc3nc4ccccc4c(=O)n3-c3ccccc3)on2)cc1
IC50 [1]: 4.67 µM | inhibition in vivo at 5 mg/kg (Rattus norvegicus [2]): 61.1% | inhibition in vivo at 5 mg/kg (Rattus norvegicus [3]): 192% | inhibition in vivo at 5 mg/kg (Rattus norvegicus [4]): 50%

C#CCSc1nc2ccccc2c(=O)n1-c1ccc(Cl)cc1
IC50 [1]: 4.26 µM

O=c1c2ccccc2nc(SCc2cn(-c3ccc(Br)cc3)nn2)n1-c1ccc(Br)cc1
IC50 [1]: 3.89 µM | IC50 [5]: 3.98 µM | IC50 (THP-1 [6]): 99.4 µM | inhibition in vivo at 5 mg/kg (Rattus norvegicus [2]): 41.7% | inhibition in vivo at 5 mg/kg (Rattus norvegicus [3]): 133% | Activity (Rattus norvegicus [7]): Toxic | Activity (THP-1 [8]): Non-Toxic | Activity (Rattus norvegicus [9]): Toxic | inhibition in vivo at 5 mg/kg (Rattus norvegicus [4]): 50%

O=C(O)c1ccc(-n2cc(CSc3nc4ccccc4c(=O)n3-c3ccc(Cl)cc3)nn2)cc1
IC50 [1]: 2.97 µM | IC50 [5]: 7.62 µM | IC50 (THP-1 [6]): 0.13 µM | inhibition in vivo at 5 mg/kg (Rattus norvegicus [2]): 70.8% | inhibition in vivo at 5 mg/kg (Rattus norvegicus [3]): 225% | Activity (Rattus norvegicus [7]): Toxic | Activity (Rattus norvegicus [10]): Toxic | Activity (Rattus norvegicus [11]): Non-Toxic | Activity (Rattus norvegicus [12]): Non-Toxic | Activity (THP-1 [8]): Non-Toxic | Activity (Rattus norvegicus [9]): Non-Toxic | inhibition in vivo at 5 mg/kg (Rattus norvegicus [4]): 50%

O=c1c2ccccc2nc(SCc2cn(-c3ccccc3)nn2)n1-c1ccccc1
IC50 [1]: 7.33 µM

O=c1c2ccccc2nc(SCc2cc(-c3ccc(Cl)cc3)no2)n1-c1ccccc1
IC50 [1]: 8.79 µM

O=c1c2ccccc2nc(SCc2cn(-c3ccc(Cl)cc3)nn2)n1-c1ccc(Cl)cc1
IC50 [1]: 6.32 µM

O=c1c2ccccc2nc(SCc2cc(-c3ccc(Cl)cc3)no2)n1-c1ccc(Br)cc1
IC50 [1]: 9.14 µM

COc1ccc(-c2cc(CSc3nc4ccccc4c(=O)n3-c3ccc(Cl)cc3)on2)cc1OC
IC50 [1]: 10.2 µM

O=c1c2ccccc2nc(SCc2cn(-c3ccccc3)nn2)n1-c1ccc(Cl)cc1
IC50 [1]: 8.24 µM

O=c1c2ccccc2nc(SCc2cn(-c3ccc(Cl)cc3)nn2)n1-c1ccccc1
IC50 [1]: 4.36 µM | IC50 [5]: 4.33 µM | IC50 (THP-1 [6]): 1.24 µM | inhibition in vivo at 5 mg/kg (Rattus norvegicus [2]): 70.8% | inhibition in vivo at 5 mg/kg (Rattus norvegicus [3]): 225% | Activity (Rattus norvegicus [7]): Non-Toxic | Activity (Rattus norvegicus [13]): Non-Toxic | Activity (THP-1 [8]): Non-Toxic | inhibition in vivo at 5 mg/kg (Rattus norvegicus [4]): 50%

COc1ccc(-n2c(SCc3cn(-c4ccc(C(=O)O)cc4)nn3)nc3ccccc3c2=O)cc1
IC50 [1]: 11.9 µM

O=C(O)c1ccc(-n2cc(CSc3nc4ccccc4c(=O)n3-c3ccc(Br)cc3)nn2)cc1
IC50 [1]: 8.67 µM

O=c1c2ccccc2nc(SCc2cn(-c3ccccc3)nn2)n1-c1ccc(Br)cc1
IC50 [1]: 4.78 µM

COc1ccc(-n2c(SCc3cn(-c4ccc(Cl)cc4)nn3)nc3ccccc3c2=O)cc1
IC50 [1]: 4.22 µM

COc1ccc(-c2cc(CSc3nc4ccccc4c(=O)n3-c3ccc(OC)cc3)on2)cc1
IC50 [1]: 6.23 µM

COc1ccc(-c2cc(CSc3nc4ccccc4c(=O)n3-c3ccc(Br)cc3)on2)cc1
IC50 [1]: 5.34 µM | inhibition in vivo at 5 mg/kg (Rattus norvegicus [2]): 61.1% | inhibition in vivo at 5 mg/kg (Rattus norvegicus [3]): 192% | inhibition in vivo at 5 mg/kg (Rattus norvegicus [4]): 50%

CCCC[C@@H](Sc1nc2ccccc2c(=O)n1-c1cccc(C)c1)C(=O)N1CCC[C@]2(CCCNC2)C1
IC50 [14]: 1.3 µM

C#CCSc1nc2ccccc2c(=O)n1-c1ccc(OC)cc1
IC50 [1]: 6.54 µM

C#CCSc1nc2ccccc2c(=O)n1-c1ccc(Br)cc1
IC50 [1]: 3.87 µM | IC50 [5]: 6.21 µM | IC50 (THP-1 [6]): 4.77 µM | inhibition in vivo at 5 mg/kg (Rattus norvegicus [2]): 70.8% | inhibition in vivo at 5 mg/kg (Rattus norvegicus [3]): 225% | Activity (Rattus norvegicus [7]): Non-Toxic | Activity (Rattus norvegicus [13]): Non-Toxic | Activity (THP-1 [8]): Non-Toxic | inhibition in vivo at 5 mg/kg (Rattus norvegicus [4]): 50%

COc1ccc(-c2cc(CSc3nc4ccccc4c(=O)n3-c3ccccc3)on2)cc1OC
IC50 [1]: 9.23 µM

O=c1c2ccccc2nc(SCc2cn(-c3ccc(Cl)cc3)nn2)n1-c1ccc(Br)cc1
IC50 [1]: 5.27 µM | IC50 [5]: 5.21 µM | IC50 (THP-1 [6]): 5.63 µM | inhibition in vivo at 5 mg/kg (Rattus norvegicus [2]): 70.8% | inhibition in vivo at 5 mg/kg (Rattus norvegicus [3]): 225% | Activity (Rattus norvegicus [7]): Toxic | Activity (Rattus norvegicus [10]): Toxic | Activity (Rattus norvegicus [11]): Non-Toxic | Activity (Rattus norvegicus [12]): Non-Toxic | Activity (THP-1 [8]): Non-Toxic | Activity (Rattus norvegicus [9]): Non-Toxic | inhibition in vivo at 5 mg/kg (Rattus norvegicus [4]): 50%

O=c1c2ccccc2nc(SCc2cn(-c3ccc(Br)cc3)nn2)n1-c1ccc(Cl)cc1
IC50 [1]: 3.67 µM

COc1ccc(-c2cc(CSc3nc4ccccc4c(=O)n3-c3ccc(Br)cc3)on2)cc1OC
IC50 [1]: 4.57 µM | inhibition in vivo at 5 mg/kg (Rattus norvegicus [2]): 51.4% | inhibition in vivo at 5 mg/kg (Rattus norvegicus [3]): 167% | inhibition in vivo at 5 mg/kg (Rattus norvegicus [4]): 50%

COc1ccc(-n2c(SCc3cc(-c4ccc(Cl)cc4)no3)nc3ccccc3c2=O)cc1
IC50 [1]: 7.68 µM

C#CCSc1nc2ccccc2c(=O)n1-c1ccccc1
IC50 [1]: 3.78 µM

COc1ccc(-c2cc(CSc3nc4ccccc4c(=O)n3-c3ccc(Cl)cc3)on2)cc1
IC50 [1]: 11.2 µM

COc1ccc(-n2c(SCc3cn(-c4ccccc4)nn3)nc3ccccc3c2=O)cc1
IC50 [1]: 10.5 µM

Cc1ccc(-c2cc(C(F)(F)F)nn2-c2ccc(S(N)(=O)=O)cc2)cc1 [CELECOXIB]
inhibition in vivo at 5 mg/kg (Rattus norvegicus [2]): 33.3% | Activity (Rattus norvegicus [13]): Non-Toxic

O=C(O)Cc1ccccc1Nc1c(Cl)cccc1Cl [DICLOFENAC]
IC50 (THP-1 [6]): 4.86 µM | inhibition in vivo at 5 mg/kg (Rattus norvegicus [2]): 66.7% | inhibition in vivo at 5 mg/kg (Rattus norvegicus [3]): 208% | Activity (THP-1 [8]): Non-Toxic

Cc1ccc(Cl)c(Nc2ccccc2C(=O)O)c1Cl [MECLOFENAMATE SODIUM]
IC50 [5]: 5.64 µM

CC(c1cc2ccccc2s1)N(O)C(N)=O (stereo unspecified) [ZILEUTON]
IC50 [5]: 2.41 µM
